A word on the pIC50: it is the IC50 on a negative log10 scale, so that one unit is a factor of ten.

pIC50: −log10 of the molar value. “And” between values parts separate entries of the source, which are not always exact repeats. Equal values may be shown once.

hNav1.7, sequence (Q15858 whole entry): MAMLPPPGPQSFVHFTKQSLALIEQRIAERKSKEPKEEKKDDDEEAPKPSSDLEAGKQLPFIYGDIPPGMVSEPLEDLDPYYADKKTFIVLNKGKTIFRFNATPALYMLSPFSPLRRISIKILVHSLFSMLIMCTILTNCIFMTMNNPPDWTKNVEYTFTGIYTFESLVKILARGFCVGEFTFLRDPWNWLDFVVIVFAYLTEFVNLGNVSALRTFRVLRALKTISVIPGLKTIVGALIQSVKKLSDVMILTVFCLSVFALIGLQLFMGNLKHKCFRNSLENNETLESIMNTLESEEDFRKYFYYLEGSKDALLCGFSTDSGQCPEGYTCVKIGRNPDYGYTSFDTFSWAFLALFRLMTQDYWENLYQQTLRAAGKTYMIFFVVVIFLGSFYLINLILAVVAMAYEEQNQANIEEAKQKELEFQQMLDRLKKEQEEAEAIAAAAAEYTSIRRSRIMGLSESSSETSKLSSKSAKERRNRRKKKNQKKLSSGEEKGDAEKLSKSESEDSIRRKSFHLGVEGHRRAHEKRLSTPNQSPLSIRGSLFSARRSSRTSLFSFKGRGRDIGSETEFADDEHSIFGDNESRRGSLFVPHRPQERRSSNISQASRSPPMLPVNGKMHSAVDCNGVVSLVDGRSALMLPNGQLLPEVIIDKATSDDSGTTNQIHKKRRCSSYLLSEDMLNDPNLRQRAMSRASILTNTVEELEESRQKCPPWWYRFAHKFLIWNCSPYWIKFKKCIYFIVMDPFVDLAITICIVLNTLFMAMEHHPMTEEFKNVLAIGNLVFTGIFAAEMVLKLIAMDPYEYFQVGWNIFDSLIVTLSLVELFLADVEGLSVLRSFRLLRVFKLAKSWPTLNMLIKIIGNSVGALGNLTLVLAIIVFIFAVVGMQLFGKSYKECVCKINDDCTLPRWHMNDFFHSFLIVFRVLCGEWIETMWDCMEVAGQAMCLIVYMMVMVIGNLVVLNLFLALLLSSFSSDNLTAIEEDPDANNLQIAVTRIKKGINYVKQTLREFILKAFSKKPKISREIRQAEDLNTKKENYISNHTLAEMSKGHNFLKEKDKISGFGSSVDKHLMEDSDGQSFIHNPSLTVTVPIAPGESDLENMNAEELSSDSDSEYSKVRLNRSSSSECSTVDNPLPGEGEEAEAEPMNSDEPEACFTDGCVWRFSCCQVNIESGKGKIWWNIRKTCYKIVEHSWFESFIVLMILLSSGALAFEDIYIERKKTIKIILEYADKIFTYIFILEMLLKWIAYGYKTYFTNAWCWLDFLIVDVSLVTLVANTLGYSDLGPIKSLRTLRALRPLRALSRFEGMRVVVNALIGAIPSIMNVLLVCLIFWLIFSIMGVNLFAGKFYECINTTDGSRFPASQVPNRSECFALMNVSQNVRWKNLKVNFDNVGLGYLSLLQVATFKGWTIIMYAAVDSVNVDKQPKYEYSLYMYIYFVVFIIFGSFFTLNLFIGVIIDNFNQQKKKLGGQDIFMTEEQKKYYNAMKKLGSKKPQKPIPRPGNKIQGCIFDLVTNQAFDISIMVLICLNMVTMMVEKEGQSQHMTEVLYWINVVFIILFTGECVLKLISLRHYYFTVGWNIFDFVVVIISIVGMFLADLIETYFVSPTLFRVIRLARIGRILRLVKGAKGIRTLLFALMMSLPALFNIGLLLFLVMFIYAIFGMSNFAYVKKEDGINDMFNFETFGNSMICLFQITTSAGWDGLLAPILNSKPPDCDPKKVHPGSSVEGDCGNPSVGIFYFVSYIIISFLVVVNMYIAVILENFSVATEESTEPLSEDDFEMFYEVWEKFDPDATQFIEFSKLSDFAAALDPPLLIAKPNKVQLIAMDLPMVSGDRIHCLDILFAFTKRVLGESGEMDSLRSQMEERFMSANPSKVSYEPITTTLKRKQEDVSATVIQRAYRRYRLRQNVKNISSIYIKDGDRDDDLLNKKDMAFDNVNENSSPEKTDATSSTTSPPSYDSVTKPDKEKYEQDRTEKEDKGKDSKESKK

The first test concerns the target hNav1.7 (Homo sapiens, UniProt Q15858). The test can be described thus: cell-based. Particulars: PatchXpress, tonic block; read-out: PX hNav1.7 Tonic IC50. Type of test: cell-based.
With `C#CC[C@H](N)C(=O)NCCCC[C@@H]1NC(=O)[C@H](CCCNC(=N)N)NC(=O)[C@H](CCCCN)NC(=O)[C@H](CO)NC(=O)[C@H](CC(=O)O)NC(=O)[C@@H]2CSSC[C@@H]3NC(=O)[C@H](CCC(=O)O)NC(=O)[C@H](CC(C)C)NC(=O)CNC(=O)[C@H](CCC(=O)O)NC(=O)[C@H](CSSC[C@H](NC(=O)[C@H](Cc4ccc(O)cc4)NC(=O)[C@@H](N)CCC)C(=O)N[C@@H](CCC(N)=O)C(=O)N[C@@H](CCCCN)C(=O)N[C@@H](Cc4c[nH]c5ccccc45)C(=O)N[C@@H](CCCC)C(=O)N[C@@H](Cc4c[nH]c5ccccc45)C(=O)N[C@@H]([C@@H](C)O)C(=O)N2)NC(=O)[C@H](CSSC[C@@H](C(=O)N[C@@H](CCCNC(=N)N)C(=O)N[C@@H](CCCCN)C(=O)N[C@@H](Cc2ccc(O)cc2)C(=O)N[C@H](C(N)=O)[C@@H](C)CC)NC(=O)[C@H](Cc2c[nH]c4ccccc24)NC(=O)[C@H](CC(C)C)NC(=O)[C@H](CCCCN)NC3=O)NC1=O` [compound 436], the pIC50 was 8.53.

Turning to `C#CC[C@H](N)C(=O)NCCCC[C@@H]1NC(=O)[C@H](CCCNC(=N)N)NC(=O)[C@H](CCCCN)NC(=O)[C@H](CO)NC(=O)[C@H](CC(=O)O)NC(=O)[C@@H]2CSSC[C@@H]3NC(=O)[C@H](CCCNC(=N)N)NC(=O)[C@H](CC(C)C)NC(=O)CNC(=O)[C@H](CCC(=O)O)NC(=O)[C@H](CSSC[C@H](NC(=O)[C@H](Cc4ccc(O)cc4)NC(=O)[C@@H](N)CCC)C(=O)N[C@@H](CCC(N)=O)C(=O)N[C@@H](CCCCN)C(=O)N[C@@H](Cc4c[nH]c5ccccc45)C(=O)N[C@@H](CC(C)C)C(=O)N[C@@H](Cc4c[nH]c5ccccc45)C(=O)N[C@@H]([C@@H](C)O)C(=O)N2)NC(=O)[C@H](CSSC[C@@H](C(=O)N[C@@H](CCCNC(=N)N)C(=O)N[C@@H](CCCCN)C(=O)N[C@@H](CCC(=O)O)C(=O)N[C@H](C(N)=O)[C@@H](C)CC)NC(=O)[C@H](Cc2c[nH]c4ccccc24)NC(=O)[C@H](CC(C)C)NC(=O)[C@H](CCCCN)NC3=O)NC1=O` [compound 439], the pIC50 was 8.98 and 8.86 and 9.42 and 9.21.

Consider `C#CC[C@H](N)C(=O)NCCCC[C@@H]1NC(=O)[C@H](CCCNC(=N)N)NC(=O)[C@H](CCCCN)NC(=O)[C@H](CO)NC(=O)[C@H](CC(=O)O)NC(=O)[C@@H]2CSSC[C@@H]3NC(=O)[C@H](CCC(=O)O)NC(=O)[C@H](CC(C)C)NC(=O)CNC(=O)[C@H](CCC(=O)O)NC(=O)[C@H](CSSC[C@H](NC(=O)[C@H](Cc4ccc(O)cc4)NC(=O)[C@@H](N)CCC)C(=O)N[C@@H](CCC(N)=O)C(=O)N[C@@H](CCCCN)C(=O)N[C@@H](Cc4c[nH]c5ccccc45)C(=O)N[C@@H](CC(C)C)C(=O)N[C@@H](Cc4c[nH]c5ccccc45)C(=O)N[C@@H]([C@@H](C)O)C(=O)N2)NC(=O)[C@H](CSSC[C@@H](C(=O)N[C@@H](CCCNC(=N)N)C(=O)N[C@@H](CCCCN)C(=O)N[C@H](C(=O)N[C@@H](Cc2c[nH]c4ccccc24)C(N)=O)[C@@H](C)CC)NC(=O)[C@H](Cc2c[nH]c4ccccc24)NC(=O)[C@H](CC(C)C)NC(=O)[C@H](CCCCN)NC3=O)NC1=O` [compound 441], for which the pIC50 was 7.98.

Staying with this test, now noted: PatchXpress; * = at high concentrations compound would wash off slowly or not at all; read-out: PX hNav1.7 Tonic IC50.
On to `CCCC[C@@H]1NC(=O)[C@H](Cc2c[nH]c3ccccc23)NC(=O)[C@H](CCCCN)NC(=O)[C@H](CCC(N)=O)NC(=O)[C@@H](NC(=O)[C@H](Cc2ccc(O)cc2)NC(=O)[C@@H](N)Cc2ccccc2)CSSC[C@@H]2NC(=O)[C@@H]3CSSC[C@@H](C(=O)N[C@@H](CCCNC(=N)N)C(=O)N[C@@H](CCCCN)C(=O)N[C@H](C(=O)N[C@H](C(N)=O)[C@@H](C)CC)[C@@H](C)CC)NC(=O)[C@H](Cc4c[nH]c5ccccc45)NC(=O)[C@H](CC(C)C)NC(=O)[C@H](CCCCN)NC(=O)[C@H](CSSC[C@H](NC(=O)[C@H]([C@@H](C)O)NC(=O)[C@H](Cc4c[nH]c5ccccc45)NC1=O)C(=O)N[C@@H](CC(=O)O)C(=O)N[C@@H](CO)C(=O)N[C@@H](CCCCN)C(=O)N[C@@H](CCCNC(=N)N)C(=O)N[C@@H](C)C(=O)N3)NC(=O)[C@H](CCCNC(=N)N)NC(=O)[C@H](CC(C)C)NC(=O)CNC(=O)[C@H](CCC(=O)O)NC2=O` [compound 358], for which the pIC50 was 9.31.

For `CCCC[C@@H]1NC(=O)[C@H](Cc2c[nH]c3ccccc23)NC(=O)[C@H](CCCCN)NC(=O)[C@H](CCC(N)=O)NC(=O)[C@@H](NC(=O)[C@H](Cc2ccc(O)cc2)NC(=O)[C@@H](N)[C@@H](C)CC)CSSC[C@@H]2NC(=O)[C@@H]3CSSC[C@@H](C(=O)N[C@@H](CCCNC(=N)N)C(=O)N[C@@H](CCCCN)C(=O)N[C@H](C(=O)N[C@H](C(N)=O)[C@@H](C)CC)[C@@H](C)CC)NC(=O)[C@H](Cc4c[nH]c5ccccc45)NC(=O)[C@H](CC(C)C)NC(=O)[C@H](CCCCN)NC(=O)[C@H](CSSC[C@H](NC(=O)[C@H]([C@@H](C)O)NC(=O)[C@H](Cc4c[nH]c5ccccc45)NC1=O)C(=O)N[C@@H](CC(=O)O)C(=O)N[C@@H](CO)C(=O)N[C@@H](CCCCN)C(=O)N[C@@H](CCCNC(=N)N)C(=O)N[C@@H](C)C(=O)N3)NC(=O)[C@H](CCCNC(=N)N)NC(=O)[C@H](CC(C)C)NC(=O)CNC(=O)[C@H](CCC(=O)O)NC2=O` [compound 360], the pIC50 was 9.28.

For the compound `CCCC[C@@H]1NC(=O)[C@H](Cc2c[nH]c3ccccc23)NC(=O)[C@H](CCCCN)NC(=O)[C@H](CCC(N)=O)NC(=O)[C@@H](NC(=O)[C@H](Cc2ccc(O)cc2)NC(=O)[C@@H]2CCCN2)CSSC[C@@H]2NC(=O)[C@@H]3CSSC[C@@H](C(=O)N[C@@H](CCCNC(=N)N)C(=O)N[C@@H](CCCCN)C(=O)N[C@H](C(=O)N[C@H](C(N)=O)[C@@H](C)CC)[C@@H](C)CC)NC(=O)[C@H](Cc4c[nH]c5ccccc45)NC(=O)[C@H](CC(C)C)NC(=O)[C@H](CCCCN)NC(=O)[C@H](CSSC[C@H](NC(=O)[C@H]([C@@H](C)O)NC(=O)[C@H](Cc4c[nH]c5ccccc45)NC1=O)C(=O)N[C@@H](CC(=O)O)C(=O)N[C@@H](CO)C(=O)N[C@@H](CCCCN)C(=O)N[C@@H](CCCNC(=N)N)C(=O)N[C@@H](C)C(=O)N3)NC(=O)[C@H](CCCNC(=N)N)NC(=O)[C@H](CC(C)C)NC(=O)CNC(=O)[C@H](CCC(=O)O)NC2=O` [compound 362], the negative-log IC50 (pIC50) was 9.43.

Consider `CCCC[C@@H]1NC(=O)[C@H](Cc2c[nH]c3ccccc23)NC(=O)[C@H](CCCCN)NC(=O)[C@H](CCC(N)=O)NC(=O)[C@@H](NC(=O)[C@H](Cc2ccc(O)cc2)NC(=O)[C@@H](N)C(C)C)CSSC[C@@H]2NC(=O)[C@@H]3CSSC[C@@H](C(=O)N[C@@H](CCCNC(=N)N)C(=O)N[C@@H](CCCCN)C(=O)N[C@H](C(=O)N[C@H](C(N)=O)[C@@H](C)CC)[C@@H](C)CC)NC(=O)[C@H](Cc4c[nH]c5ccccc45)NC(=O)[C@H](CC(C)C)NC(=O)[C@H](CCCCN)NC(=O)[C@H](CSSC[C@H](NC(=O)[C@H]([C@@H](C)O)NC(=O)[C@H](Cc4c[nH]c5ccccc45)NC1=O)C(=O)N[C@@H](CC(=O)O)C(=O)N[C@@H](CO)C(=O)N[C@@H](CCCCN)C(=O)N[C@@H](CCCNC(=N)N)C(=O)N[C@@H](C)C(=O)N3)NC(=O)[C@H](CCCNC(=N)N)NC(=O)[C@H](CC(C)C)NC(=O)CNC(=O)[C@H](CCC(=O)O)NC2=O` [compound 363], for which the pIC50 was 9.26.

These data come from patent publication US9636418B2 (priority 2013, dated 2017).
